Reference: patent publication US3948899A, “α-Cyanobenzylpiperazines and a process for producing the same” (Fuji Chemical Industry Co., Ltd., priority 1973, dated 1976)
Structures can show the parent of a compound that is named as a salt.

Key:
mongrel adult dogs [1] = assay: Effects on arterial mean blood pressure (thoractomized anesthetized dogs, i.v.); format: in vivo, dog
Method: (§1) All experiments were conducted on male and female thoractomized mongrel adult dogs weighing about 10 Kg under anesthesia with pentobarbital sodium.
(§2) Arterial blood pressure was measured by pressure transducer (Nippon Koden MPU-0.5) connected with the cannula inserted from exposed carotid artery into aorta. Aortic blood flow was determined by means of electromagnetic flow meter (Nippon Koden MF-5) mounted at an origin of aorta. Coronary sinus out flow and coronary sinus oxygen tension were assessed by means of electromagnetic flow meter (Nippon Koden MF-5) and Po2 Macro electrode (Beckmann Moder 160-C), respectively, using Morawitz cannulization technique. Heart rate was measured by cardiotachometer (Nippon Koden RT-2) synchronized with systolic blood pressure of aorta.

mongrel adult dogs [2] = assay: Effects on aortic blood flow (thoractomized anesthetized dogs, i.v.); format: in vivo, dog
Method: as §1, §2

[3] = Acute toxicity (LD50; per os, mice); format: in vivo; conditions: mouse, in vivo, po, dd-0train male mice
Method: 7. Acute Toxicity (See Table 7) Acute toxicity (LD50; per os, mice) was measured in dd-0train male mice.

[4] = prior art; cited from earlier work
mongrel adult dogs [5] = assay: Effects on coronary sinus out flow (thoractomized anesthetized dogs, i.v.); format: in vivo, dog
Method: as §1, §2

## COc1ccc(CN2CCNCC2)c(OC)c1OC [Vastarel F, 2,3,4 -trimethoxybenzylpiperazine dihydrochloride]
Mongrel adult dogs [1]; i.v. 0.2 mg/Kg, 1 min
  Changes(%) of basal values, arterial mean blood pressure: -1.0%
Mongrel adult dogs [1]; i.v. 0.2 mg/Kg, 5 min
  Changes(%) of basal values, arterial mean blood pressure: -2.0%
Mongrel adult dogs [1]; i.v. 0.2 mg/Kg, 10 min
  Changes(%) of basal values, arterial mean blood pressure: -1.5%
Mongrel adult dogs [1]; i.v. 0.2 mg/Kg, 15 min
  Changes(%) of basal values, arterial mean blood pressure: -1.0%
Mongrel adult dogs [1]; i.v. 0.2 mg/Kg, 20 min
  Changes(%) of basal values, arterial mean blood pressure: 0%
Mongrel adult dogs [1]; i.v. 0.2 mg/Kg, 25 min
  Changes(%) of basal values, arterial mean blood pressure: 0%
Mongrel adult dogs [1]; i.v. 0.2 mg/Kg, 30 min
  Changes(%) of basal values, arterial mean blood pressure: 0%
Mongrel adult dogs [1]; i.v. 0.2 mg/Kg, imm.
  Changes(%) of basal values, arterial mean blood pressure: -3.0%
Mongrel adult dogs [1]; i.v. 0.6 mg/Kg, 1 min
  Changes(%) of basal values, arterial mean blood pressure: -2.0%
Mongrel adult dogs [1]; i.v. 0.6 mg/Kg, 5 min
  Changes(%) of basal values, arterial mean blood pressure: -1.5%
Mongrel adult dogs [1]; i.v. 0.6 mg/Kg, 10 min
  Changes(%) of basal values, arterial mean blood pressure: -1.0%
Mongrel adult dogs [1]; i.v. 0.6 mg/Kg, 15 min
  Changes(%) of basal values, arterial mean blood pressure: -1.0%
Mongrel adult dogs [1]; i.v. 0.6 mg/Kg, 20 min
  Changes(%) of basal values, arterial mean blood pressure: 0%
Mongrel adult dogs [1]; i.v. 0.6 mg/Kg, 25 min
  Changes(%) of basal values, arterial mean blood pressure: 0%
Mongrel adult dogs [1]; i.v. 0.6 mg/Kg, 30 min
  Changes(%) of basal values, arterial mean blood pressure: 0%
Mongrel adult dogs [1]; i.v. 0.6 mg/Kg, imm.
  Changes(%) of basal values, arterial mean blood pressure: -6.0%
Mongrel adult dogs [1]; i.v. 2.0 mg/Kg, 1 min
  Changes(%) of basal values, arterial mean blood pressure: -35.0%
Mongrel adult dogs [1]; i.v. 2.0 mg/Kg, 5 min
  Changes(%) of basal values, arterial mean blood pressure: -2.0%
Mongrel adult dogs [1]; i.v. 2.0 mg/Kg, 10 min
  Changes(%) of basal values, arterial mean blood pressure: -1.0%
Mongrel adult dogs [1]; i.v. 2.0 mg/Kg, 15 min
  Changes(%) of basal values, arterial mean blood pressure: 0%
Mongrel adult dogs [1]; i.v. 2.0 mg/Kg, 20 min
  Changes(%) of basal values, arterial mean blood pressure: -1.0%
Mongrel adult dogs [1]; i.v. 2.0 mg/Kg, 25 min
  Changes(%) of basal values, arterial mean blood pressure: -2.0%
Mongrel adult dogs [1]; i.v. 2.0 mg/Kg, 30 min
  Changes(%) of basal values, arterial mean blood pressure: -2.0%
Mongrel adult dogs [1]; i.v. 2.0 mg/Kg, imm.
  Changes(%) of basal values, arterial mean blood pressure: -55.0%
Mongrel adult dogs [2]; i.v. 0.2 mg/Kg, 1 min
  Changes(%) of basal values, aortic blood flow: 0%
Mongrel adult dogs [2]; i.v. 0.2 mg/Kg, 5 min
  Changes(%) of basal values, aortic blood flow: 0%
Mongrel adult dogs [2]; i.v. 0.2 mg/Kg, 10 min
  Changes(%) of basal values, aortic blood flow: 0%
Mongrel adult dogs [2]; i.v. 0.2 mg/Kg, 15 min
  Changes(%) of basal values, aortic blood flow: 0%
Mongrel adult dogs [2]; i.v. 0.2 mg/Kg, 20 min
  Changes(%) of basal values, aortic blood flow: 0%
Mongrel adult dogs [2]; i.v. 0.2 mg/Kg, 25 min
  Changes(%) of basal values, aortic blood flow: 0%
Mongrel adult dogs [2]; i.v. 0.2 mg/Kg, 30 min
  Changes(%) of basal values, aortic blood flow: 0%
Mongrel adult dogs [2]; i.v. 0.2 mg/Kg, imm.
  Changes(%) of basal values, aortic blood flow: 0%
Mongrel adult dogs [2]; i.v. 0.6 mg/Kg, 1 min
  Changes(%) of basal values, aortic blood flow: +0.5%
Mongrel adult dogs [2]; i.v. 0.6 mg/Kg, 5 min
  Changes(%) of basal values, aortic blood flow: 0%
Mongrel adult dogs [2]; i.v. 0.6 mg/Kg, 10 min
  Changes(%) of basal values, aortic blood flow: -1.0%
Mongrel adult dogs [2]; i.v. 0.6 mg/Kg, 15 min
  Changes(%) of basal values, aortic blood flow: -1.0%
Mongrel adult dogs [2]; i.v. 0.6 mg/Kg, 20 min
  Changes(%) of basal values, aortic blood flow: -1.0%
Mongrel adult dogs [2]; i.v. 0.6 mg/Kg, 25 min
  Changes(%) of basal values, aortic blood flow: -1.5%
Mongrel adult dogs [2]; i.v. 0.6 mg/Kg, 30 min
  Changes(%) of basal values, aortic blood flow: 0%
Mongrel adult dogs [2]; i.v. 0.6 mg/Kg, imm.
  Changes(%) of basal values, aortic blood flow: +1.5%
Mongrel adult dogs [2]; i.v. 2.0 mg/Kg, 1 min
  Changes(%) of basal values, aortic blood flow: 0%
Mongrel adult dogs [2]; i.v. 2.0 mg/Kg, 5 min
  Changes(%) of basal values, aortic blood flow: +11.0%
Mongrel adult dogs [2]; i.v. 2.0 mg/Kg, 10 min
  Changes(%) of basal values, aortic blood flow: +23.0%
Mongrel adult dogs [2]; i.v. 2.0 mg/Kg, 15 min
  Changes(%) of basal values, aortic blood flow: +10.0%
Mongrel adult dogs [2]; i.v. 2.0 mg/Kg, 20 min
  Changes(%) of basal values, aortic blood flow: +5.0%
Mongrel adult dogs [2]; i.v. 2.0 mg/Kg, 25 min
  Changes(%) of basal values, aortic blood flow: +6.0%
Mongrel adult dogs [2]; i.v. 2.0 mg/Kg, 30 min
  Changes(%) of basal values, aortic blood flow: +5.0%
Mongrel adult dogs [2]; i.v. 2.0 mg/Kg, imm.
  Changes(%) of basal values, aortic blood flow: -78.0%
[3]
  LD50: 960 mg/kg
[4]
  Effect on the heart, disadvantage (in words): depressant effect on the heart
Mongrel adult dogs [5]; i.v. 0.2 mg/Kg, 1 min
  Changes(%) of basal values, coronery sinus out flow: +1.0%
Mongrel adult dogs [5]; i.v. 0.2 mg/Kg, 5 min
  Changes(%) of basal values, coronery sinus out flow: 0%
Mongrel adult dogs [5]; i.v. 0.2 mg/Kg, 10 min
  Changes(%) of basal values, coronery sinus out flow: 0%
Mongrel adult dogs [5]; i.v. 0.2 mg/Kg, 15 min
  Changes(%) of basal values, coronery sinus out flow: 0%
Mongrel adult dogs [5]; i.v. 0.2 mg/Kg, 20 min
  Changes(%) of basal values, coronery sinus out flow: 0%
Mongrel adult dogs [5]; i.v. 0.2 mg/Kg, 25 min
  Changes(%) of basal values, coronery sinus out flow: 0%
Mongrel adult dogs [5]; i.v. 0.2 mg/Kg, 30 min
  Changes(%) of basal values, coronery sinus out flow: 0%
Mongrel adult dogs [5]; i.v. 0.2 mg/Kg, imm.
  Changes(%) of basal values, coronery sinus out flow: +4.0%
Mongrel adult dogs [5]; i.v. 0.6 mg/Kg, 1 min
  Changes(%) of basal values, coronery sinus out flow: +2.5%
Mongrel adult dogs [5]; i.v. 0.6 mg/Kg, 5 min
  Changes(%) of basal values, coronery sinus out flow: +2.5%
Mongrel adult dogs [5]; i.v. 0.6 mg/Kg, 10 min
  Changes(%) of basal values, coronery sinus out flow: 0%
Mongrel adult dogs [5]; i.v. 0.6 mg/Kg, 15 min
  Changes(%) of basal values, coronery sinus out flow: 0%
Mongrel adult dogs [5]; i.v. 0.6 mg/Kg, 20 min
  Changes(%) of basal values, coronery sinus out flow: 0%
Mongrel adult dogs [5]; i.v. 0.6 mg/Kg, 25 min
  Changes(%) of basal values, coronery sinus out flow: 0%
Mongrel adult dogs [5]; i.v. 0.6 mg/Kg, 30 min
  Changes(%) of basal values, coronery sinus out flow: 0%
Mongrel adult dogs [5]; i.v. 0.6 mg/Kg, imm.
  Changes(%) of basal values, coronery sinus out flow: +6.0%
Mongrel adult dogs [5]; i.v. 2.0 mg/Kg, 1 min
  Changes(%) of basal values, coronery sinus out flow: -3.0%
Mongrel adult dogs [5]; i.v. 2.0 mg/Kg, 5 min
  Changes(%) of basal values, coronery sinus out flow: +3.0%
Mongrel adult dogs [5]; i.v. 2.0 mg/Kg, 10 min
  Changes(%) of basal values, coronery sinus out flow: +9.0%
Mongrel adult dogs [5]; i.v. 2.0 mg/Kg, 15 min
  Changes(%) of basal values, coronery sinus out flow: +8.0%
Mongrel adult dogs [5]; i.v. 2.0 mg/Kg, 20 min
  Changes(%) of basal values, coronery sinus out flow: +4.0%
Mongrel adult dogs [5]; i.v. 2.0 mg/Kg, 25 min
  Changes(%) of basal values, coronery sinus out flow: +1.0%
Mongrel adult dogs [5]; i.v. 2.0 mg/Kg, 30 min
  Changes(%) of basal values, coronery sinus out flow: 0%
